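48-hour exposure; five concentrations; linearly interpolated endpoints. At the GI50, growth is halved. TGI marks complete inhibition of growth.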
Legend:
Test in all cases: NCI tumour cell line growth inhibition, 48 h
[1] = tested on: DU-145 prostate
[2] = tested on: HOP-92 NSCLC
[3] = tested on: NCI-H23 lung
[4] = tested on: SF-295 CNS
[5] = tested on: MOLT-4 leukemia
[6] = tested on: NCI-H460 lung
[7] = tested on: OVCAR-3 ovarian
[8] = tested on: RXF 393 renal
[9] = tested on: SF-539 CNS
[10] = tested on: SK-OV-3 ovarian

SMILES	TGI [1] [µM]	TGI [2] [µM]	TGI [3] [µM]	TGI [4] [µM]	TGI [5] [µM]	TGI [6] [µM]	TGI [7] [µM]	TGI [8] [µM]	GI50 [1] [nM]	GI50 [2] [nM]	GI50 [9] [nM]	TGI [9] [µM]	GI50 [3] [nM]	GI50 [4] [nM]	GI50 [10] [nM]	TGI [10] [µM]	GI50 [6] [nM]	GI50 [8] [nM]
NCc1ccc(C(=O)O)cc1	> 100	> 100	> 100	> 100	> 100	> 100	> 100	> 100										
C#CC[C@@H]1C[C@]2(C)[C@H]3CC=C4[C@H]5CC(C)(C)CC[C@]5(C(=O)NCCCCN)CC[C@@]4(C)[C@]3(C)CC[C@H]2C(C)(C)[C@H]1OC(C)=O	3.15	2.81	3.47	3.29		3.47		2.95	1700	1330	1680	3.1	1750	1820	1720	3.18	1840	1520
Brc1ccccc1-c1ncc(-c2ccccc2)o1	> 100	46.3	> 100	> 100	49.6	> 100	89.6	55.9				77.1				> 100		
O=[N+]([O-])c1cn[n+]([O-])c2ccccc12	3.79	28.4	36.1	17.6		24.5	7.28					22.7				26.3		
CN(C)c1ccc(N=Nc2ccccn2)cc1	> 100	> 100	83.2	> 100	40.9	> 100	> 100	> 100				> 100				> 100		
CC(C)(Br)C1(O)CCCN1C(=O)c1ccccc1 (centres undefined)		> 100	> 100	> 100	> 100	> 100	> 100	> 100				> 100				> 100		
NCc1ccccc1C1CSCSC1			> 100	> 100	> 100	> 100	> 100	> 100				> 100				> 100		
COc1ccc(NC(=O)/C(CC2=Nc3ccc([N+](=O)[O-])cc3NC2O)=N\NC(=O)C[N+](C)(C)C)c(OC)c1 (centres undefined)	> 100	> 100	> 100	> 100	> 100	> 100	> 100	> 100				> 100				> 100		
Cn1c(-c2ccc(/C=N\N3CCN(/N=C/c4ccc(-c5c[n+]6ccccc6n5C)cc4)CC3)cc2)c[n+]2ccccc12	> 100	84.6	> 100	78.6	> 100	> 100	> 100	60.9				> 100				> 100		
C=C1C(=O)OC2C1CC(O)/C(C)=C\CCC1(C)OC21 (centres undefined)	> 100	> 100	> 100	> 100	79.3	> 100	34.1	31.8				> 100				> 100		
